Assay results taken from patent publication US12440471B2, “Compositions and methods for the treatment of bronchopulmonary dysplasia (BPD) and BPD-associated pulmonary hypertension” (AyuVis Research, Inc., priority 2021, dated 2025).

Tests used:
[1] = tested on: hyperoxia-exposed BPD mouse model; experiment: BPD mouse model: BPD-PH, RV hypertrophy ratios; format: in vivo
From the text: AVR-48 protects the lungs from progressing towards BPD-PH. BPD-PH is characterized by abnormal vascular remodeling and rarefication of the pulmonary vasculature leading to vascular growth arrest which eventually leads to increased pulmonary vascular resistance and right heart failure (Hansmann, Sallmon et al. 2021). A similar effect is also seen in mouse models of experimental BPD, as reported by the present inventors, previously (Sun, Choo-Wing et al. 2013, Sureshbabu, Syed et al. 2016, Syed, Das et al. 2017, Leary, Das et al. 2019). There is hypertrophy of the right ventricle (RV) with an increase in the thickness of interventricular septum (IVS). […] There was no change in the ratio in the RA group treated with the drug, which was similar to RA control group (FIG. 8A).
Morphometry and quantification. To study chord length, septal thickness and radial alveolar count in the lungs, RV, LV and IVS thickness, 5 μm-thick left-lobe lung and heart paraffin-embedded sections were stained with H&E. Multiple randomly chosen areas (at least 10 areas) from each section were photographed using 100× total magnification. Sections with large airways or blood vessels from the lung were excluded for lung morphometry while quantitative measurements of PH-induced RV hypertrophy ratios (RV/LV and RV/LV+IVS) were done using the methodology described previously (Sun, Choo-Wing et al. 2013). The lung morphometry parameters were measured as described (Bhandari, Choo-Wing et al. 2008, Leary, Das et al. 2019, Das, Acharya et al. 2020, Das, Curstedt et al. 2020) either using ImageJ (a free software of NIH) or CellSens software (version 7, Olympus).

[2] = target: T1, TLR4 (Homo sapiens, UniProt O00206); experiment: TLR4 assay: unbound TLR4 ELISA in PMA-stimulated THP-1 cell lysates; format: binding; conditions: THP-1 human monocyte cells
T1 construct: Cell lysates were prepared, total protein was quantified and treated with different concentrations; host or cells: THP-1 cells stimulated with PMA for 48 h, then lysed
Experimental: FIG. 26A, TLR4 assay: 1×10^5 THP cells (ATCC) were seeded in 24 well plates and stimulated with phorbol myristyl actetate (PMA, 200 ng/mL) for 48 h. Cell lysates were prepared, total protein was quantified and treated with different concentrations (4, 16, 62.5 and 250 μM) of the AVR-48 for 2 h. ELISA was performed after to assess unbound TLR4 following manufacturer's instruction (Raybiotech). TLR4 IC50 of the AVR-48 was calculated using GraphPad Prism7.04.

[3] = tested on: hPBMC; experiment: Secreted IL-10 and LPS induced TNF-α in hPBMC by ELISA; format: cell-based, human
Experimental: FIG. 26 C, Pretreatment (24 h) of AVR-48 to hPBMC followed by 6h of treatment with LPS (25 ng/ml) decreased the secreted TNF-α production in hPBMC cell supernatants. N=3.**p<0.01, ***p<0.001. One-way ANOVA.

[4] = tested on: hPBMC; experiment: Macrophage populations in hPBMC by FACS; format: cell-based, human; conditions: 72 h
Experimental: Briefly, hPBMC were plated in a 96 well plate and treated with AVR 48 for 72 hrs. The cells were washed and stained for CD32, CD14, CD16, HLADR, CD86, CD206 anti-human antibodies and were analyzed by FACS. Dead cells were excluded by live/dead staining (7AAD) during analysis. The % of intermediate macrophages of the parent cells are determined as the macrophages stained positive for both HLADR and CD206 surface markers. The bar graph representing percentage of intermediate macrophages (Mint) of the parent macrophage populations (CD14+CD16+) after treatment with AVR-48. n=2 technical replicates and the experiment is repeated 3 times. AVR-48 binds to both toll-like receptor 4 (TLR4) and CD163 receptor on monocytes. In hPBMC, AVR-48 treatment for 72 h increased the percentage of intermediate macrophages and decreased M1 macrophages.

[5] = tested on: whole cord blood (WCB); experiment: Cytokines in whole cord blood (WCB); format: cell-based, human
From the text: IL-1β and IFN-Υ were not detected with either AVR-48 alone or in combination with LPS. N=[…], **p<0.05, ***p<0.005, ****p<0.001, One-way ANOVA.

[6] = Oral PK of nanomilled formulations in adult SD rats; format: in vivo, rat; conditions: oral formulation, 100 mg/kg
Experimental: The test item, the stabilizer (HPC-SSL) and the surfactant (SDS) were accurately weighed and transferred in a 15-mL amber glass jar charged with 6 mL of yttrium-stabilized zirconia beads (0.8 mm). The suspension was brought to final weight with water in order to achieve the desired final concentration. The formulation was mixed using a vortex for at least 1 minute and then homogenized using a roller mill (Unitized Jar Mill, Model 755 RMV from U.S. Stoneware (purchased from Fisher Scientific Canada cat #08-381-1) at 50 rpm for 48 hours.
For the animal study, the suspensions prepared at 50 mg/mL were diluted to 10 mg/mL using a blank vehicle prepared using the same proportions of excipients as those indicated in Table I. By diluting the concentrated suspension of AVR-84 a clear solution was obtained whereas for AVR-48 the solution was a homogeneous cloudy solution.
Animals and dosing: The male SD rats (N=3) were obtained from Charles River. Each animal was weighed before the administration of the test item. […] At the specified time points, t=15′, 30′, 1 h, 2 h, 3 h, 4 h, 6 h, 8 h and 24 h (N=3), blood (100 μL) was collected via the saphenous vein using MINIVETTE® POCT K3-EDTA. The blood samples were centrifuged for 10 min at 965 g and 4° C. within 30 min of collection, to obtain plasma. Plasma samples were kept frozen at −80° C. The plasma samples were thawed on ice and kept on ice during the sample preparation. Thirty μL of plasma samples were mixed with 75 μL of precipitation solution (80% acetonitrile and 20% methanol containing IS) was added. Samples were mixed and centrifuged at 3500 rpm for 10 min at 4° C. Forty μL of the supernatant was transferred to a 96 well plate, and 80 μL of water+0.1% formic acid was added and analyzed using the in house developed HPLC method.

[7] = AVR-48 alone or in combination with LPS

T1 sequence (O00206 24-839): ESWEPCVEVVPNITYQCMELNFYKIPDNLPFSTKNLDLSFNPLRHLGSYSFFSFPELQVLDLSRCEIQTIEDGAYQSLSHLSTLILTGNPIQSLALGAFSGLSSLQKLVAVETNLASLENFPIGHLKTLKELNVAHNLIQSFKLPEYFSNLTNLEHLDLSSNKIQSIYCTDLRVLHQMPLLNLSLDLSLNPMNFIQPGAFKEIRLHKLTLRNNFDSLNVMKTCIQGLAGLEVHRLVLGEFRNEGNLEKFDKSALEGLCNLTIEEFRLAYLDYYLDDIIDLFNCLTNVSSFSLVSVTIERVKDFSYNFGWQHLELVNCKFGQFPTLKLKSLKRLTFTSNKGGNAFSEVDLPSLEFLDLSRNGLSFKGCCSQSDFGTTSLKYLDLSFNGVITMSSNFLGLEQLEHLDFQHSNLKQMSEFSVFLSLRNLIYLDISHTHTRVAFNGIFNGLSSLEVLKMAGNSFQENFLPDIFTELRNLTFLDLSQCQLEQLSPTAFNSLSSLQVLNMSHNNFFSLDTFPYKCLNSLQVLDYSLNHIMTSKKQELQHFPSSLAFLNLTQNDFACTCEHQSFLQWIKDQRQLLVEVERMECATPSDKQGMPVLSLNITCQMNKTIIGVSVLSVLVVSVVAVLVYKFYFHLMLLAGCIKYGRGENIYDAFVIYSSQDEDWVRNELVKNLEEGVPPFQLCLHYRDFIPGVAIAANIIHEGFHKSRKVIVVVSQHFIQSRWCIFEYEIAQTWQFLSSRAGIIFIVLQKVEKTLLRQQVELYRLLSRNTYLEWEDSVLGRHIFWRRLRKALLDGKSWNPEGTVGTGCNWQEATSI

Question: What does the source list for `CC(=O)N[C@@H]1C(Oc2ccc([N+](=O)[O-])cc2)OC(CO)C(O)C1O` (stereo partly drawn) [AVR-48]?
Answer: Fulton's Index (RV/LV+IVS) ([1]; BPD group after treatment): decreased significantly; RV/left ventricle (LV) ratio ([1]; BPD group after treatment): decreased significantly; RV/LV ratio and Fulton's Index in room air animals ([1]; RA group treated with the drug vs RA control): no change; binding to TLR4 [2]: binds to TLR4; binding to TLR4 ([2]; listed as 8): bind TLR4; secreted TNF-α production ([3]; 24 h pretreatment followed by 6 h LPS (25 ng/ml)): decreased; secreted IL-10 levels ([3]; hPBMC supernatant, 24 h post treatment): dose dependently increased; M1 macrophages [4]: decreased; percentage of intermediate macrophages [4]: increased; IFN-Υ [5, 7]: not detected; IL-1β [5, 7]: not detected; IL-10 increase ([5]; AVR-48 alone, 10 μM): ~1.5 fold; IL-10 ([5]; LPS+AVR-48, 10 μM): increased; TNF-α level ([5]; alone or in combination with LPS): significantly decreased; Cmax ([6]; male, SD (Sprague-Dawley), rat, plasma, adult rats n=3 (repeat of figure legend), read-out: Cmax): 3.64 ± 0.66 µM; Tmax ([6]; male, SD (Sprague-Dawley), rat, plasma, adult rats n=3, read-out: Tmax): 42 ± 18 min; half-life ([6]; male, SD (Sprague-Dawley), rat, plasma, adult rats n=3, read-out: half-life (T v2) (converted)): 36 ± 24 min; plasma concentration profile [6]: linear decline in drug concentration
